Measured values reported in patent US8710017B2, “Human and mouse targeting peptides identified by phage display” (priority 2000, dated 2014).
Peptide text beside a SMILES is read from it.

Legend:
[1] = target: T1, β3 integrin cytoplasmic domain (Homo sapiens, UniProt P05106); assay: Binding of Fyn-phosphorylated phage to β3 cytoplasmic domain; conditions: phage phosphorylated by Fyn versus unphosphorylated phage
T1 construct: recombinant fusion proteins containing β3 or β5 cytoplasmic domains
T1 sequence (P05106 742-788 limits assumed): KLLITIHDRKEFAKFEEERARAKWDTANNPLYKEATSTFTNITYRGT
Experimental: Phosphorylation of peptide libraries with src family protein kinases (Fyn, c-Src, Lyn, and Syc) and serine/threonine kinases such as a MAP kinase were performed as described previously (Schmitz et al., 1996; Dente et al., 1997; Gram et al., 1997). Briefly, phage particles were collected from culture supernatants by double precipitation with 20% polyethylene glycol 8000 in 2.5 M NaCl. Particles were dissolved at 10^12 particles/ml. Purified phage (10 μl) were incubated for 3 hours at room temperature with different concentrations (35 to 3,500 units) of protein kinases in a reaction buffer volume of 50 μl. The reaction mixtures were transferred to tubes containing 10 μg of agarose-conjugated anti-P-Tyr, anti-P-Ser, or anti-P-Thr monoclonal antibodies to select phage displaying phosphorylated peptides. […] Phosphorylated peptides binding to β3 and β5 cytoplasmic domains were analyzed as described in the previous section.
Randomly selected clones from rounds III and IV were sequenced from a X4YX4 phosphorylated library with Fyn. […] The ratio of binding to β3 or β5 was calculated by dividing the number of β3 or β5 colonies by GST or BSA colonies found after panning. The ratio of binding to β3 or β5 with phosphorylated phage by Fyn versus unphosphorylated phage was calculated by dividing the number of colonies found after the panning. […]

[2] = target: T2, APA (SK-RC-49/APA cells) (Homo sapiens, UniProt Q07075); assay: Phage binding specificity assay on SK-RC-49/APA cells; format: cell-based; conditions: soluble peptide in binding medium, not shown
T2 construct: The renal carcinoma cell line SK-RC-49 was transfected with an expression vector encoding full-length APA cDNA; expressed in transfected cells; host or cells: SK-RC-49 renal carcinoma cells, stably transfected (G418)
Experimental: The cell binding assay was performed with an input of 10^9 TU as described for the cell panning. The specificity was confirmed by adding […] (SEQ ID NO:123) peptide to the binding medium in increasing concentrations. For phage binding on immunocaptured APA, wells were blocked for 1 h at room temperature with PBS/3% BSA and incubated with 10^9 TU for 1 h at room temperature in 50 μl PBS/3% BSA. After eight washes in PBS/1% BSA/0.01% Tween-20 and two washes in PBS, phage were rescued by adding 200 μl of exponentially growing K91Kan E. coli. Each experiment was repeated at least three times.

[3] = target: T3, Aminopeptidase A (APA, EC 3.4.11.7) (Homo sapiens, UniProt Q07075); assay: APA enzyme assay (α-glutamyl-p-nitroanilide, SK-RC-49/APA cells); format: biochemical; conditions: highest concentration tested
T3 construct: The renal carcinoma cell line SK-RC-49 was transfected with an expression vector encoding full-length APA cDNA; expressed in transfected cells; host or cells: SK-RC-49 renal carcinoma cells, stably transfected (G418)

[4] = tested on: HUVECs; assay: HUVEC chemotaxis assay (Boyden chamber, VEGF-A); format: cell-based, human
Experimental: FIG. 24. […] (SEQ ID NO:123) inhibits HUVEC migration. HUVECs were stimulated with VEGF-A (10 ng/ml). The assay was performed in a Boyden microchemotaxis chamber, and cells were allowed to migrate through an 8-μm pore filter for 5 h at 37° C. […] (SEQ ID NO:124) (control) and […] (SEQ ID NO:123) peptides were tested at 1 mM concentration. Migrated cells were stained and five high-power fields (magnitude 100×) for each microwell were counted. Error bars are the standard error of the means of triplicate microwells.
A cell migration assay was performed in a 48-well microchemotaxis chamber (NeuroProbe, Gaithersburg, Md.) according to Bussolini et al. (1995). Polyvinylpyrrolidone-free polycarbonate filters (Nucleopore, Cambridge, Mass.) with 8-μm pores were coated with 1% gelatin for 10 min at room temperature and equilibrated in M199 medium supplemented with 2% FCS. […] (SEQ ID NO:123) or control […] (SEQ ID NO:124) peptide (1 mM) was placed in the lower compartment of a Boyden chamber in M199 medium supplemented with 2% FCS and 10 ng/ml VEGF-A (R&D System). Subconfluent cultures that had been starved overnight were harvested in PBS containing 2.5 mM EDTA, washed once in PBS, and resuspended in M199 medium containing 2% FCS at a final concentration of 2×10^6 cells/ml. After the filter was placed between the lower and upper chambers, 50 μl of the cell suspension was seeded in the upper compartment, and cells were allowed to migrate for 5 h at 37° C. in a humidified atmosphere with 5% CO2. The filter was then removed, and cells on the upper side were scraped with a rubber policeman. Migrated cells were fixed in methanol and stained with Giemsa solution (Diff-Quick, Baxter Diagnostics, Rome, Italy). Five random high-power fields (magnitude 100×) were counted in each well. Each assay was run in triplicate.

[5] = tested on: HUVECs; assay: HUVEC cell growth assay (crystal violet, VEGF-A); format: cell-based, human
Experimental: FIG. 25. […] (SEQ ID NO:123) inhibits HUVEC proliferation. Cells were stimulated with VEGF-A (10 ng/ml), and growth was evaluated at the indicated times by a colorimetric assay based on crystal violet staining. Error bars are the standard error of the means of triplicate wells. Each experiment was repeated at least twice with similar results.
HUVECs were seeded in 48-well plates (10^4 cells/well) and allowed to attach for 24 h in complete M199 medium. The cells were then starved in M199 medium containing 2% FCS for 24 h. […] (SEQ ID NO:123) or control […] (SEQ ID NO:124) peptide (1 mM) was added to the wells in medium containing 2% FCS and 10 ng/ml VEGF-A (R&D System, Abingdom, UK). After incubation for the indicated times, cells were fixed in 2.5% glutaraldehyde, stained with 0.1% crystal violet in 20% methanol, and solubilized in 10% acetic acid. All treatments were done in triplicate. Cell growth was evaluated by measuring the O.D. at 590 nm in a microplate reader (Biorad, Hercules, Calif.). A calibration curve was established and a linear correlation between O.D. and cell counts was observed between 10^3 and 10^5 cells.

[6] = tested on: HUVECs; assay: Three-dimensional Matrigel culture of HUVECs (capillary-like network); format: cell-based, human; conditions: not shown
Experimental: Matrigel (Collaborative Research, Bedford, Mass.) was added at 100 μl per well to 48-well tissue culture plates and allowed to solidify for 10 min at 37° C. HUVECs were starved for 24 h in M199 medium supplemented with 2% FCS before being harvested in PBS containing 2.5 mM EDTA. 10^4 cells were gently added to each of the triplicate wells and allowed to adhere to the gel coating for 30 min at 37° C. Then, medium was replaced with indicated concentrations of […] (SEQ ID NO:123) or […] (SEQ ID NO:124) peptides in complete medium. The plates were photographed after 24 h with an inverted microscope (Canon). The assay was repeated three times.

[7] = tested on: chicken chorioallantoic membrane (CAM); assay: CAM assay for angiogenesis; format: in vivo
Experimental: In vivo angiogenesis was evaluated by a CAM assay (Ribatti et al., 1994). Fertilized eggs from White Leghorn chickens were maintained in constant humidity at 37° C. On the third day of incubation, a square window was opened in the eggshell and 2-3 ml of albumen was removed to detach the developing CAM from the shell. The window was sealed with a glass plate of the same size and the eggs were returned to the incubator. At day 8, 1 mm^3 sterilized gelatin sponges (Gelfoam, Upjohn Co, Kalamazoo, Milan) were adsorbed with VEGF-A (20 ng, R&D System) and either […] (SEQ ID NO:123) or control […] (SEQ ID NO:124) peptide (1 mM) in 3 μl PBS and implanted on the top of the growing CAMs under sterile conditions. CAMs were examined daily until day 12 and photographed in ovo with a Leica stereomicroscope. Capillaries emerging from the sponge were counted. The assay was repeated twice.

[8] = lower concentrations, not shown

T3 sequence (Q07075 whole entry): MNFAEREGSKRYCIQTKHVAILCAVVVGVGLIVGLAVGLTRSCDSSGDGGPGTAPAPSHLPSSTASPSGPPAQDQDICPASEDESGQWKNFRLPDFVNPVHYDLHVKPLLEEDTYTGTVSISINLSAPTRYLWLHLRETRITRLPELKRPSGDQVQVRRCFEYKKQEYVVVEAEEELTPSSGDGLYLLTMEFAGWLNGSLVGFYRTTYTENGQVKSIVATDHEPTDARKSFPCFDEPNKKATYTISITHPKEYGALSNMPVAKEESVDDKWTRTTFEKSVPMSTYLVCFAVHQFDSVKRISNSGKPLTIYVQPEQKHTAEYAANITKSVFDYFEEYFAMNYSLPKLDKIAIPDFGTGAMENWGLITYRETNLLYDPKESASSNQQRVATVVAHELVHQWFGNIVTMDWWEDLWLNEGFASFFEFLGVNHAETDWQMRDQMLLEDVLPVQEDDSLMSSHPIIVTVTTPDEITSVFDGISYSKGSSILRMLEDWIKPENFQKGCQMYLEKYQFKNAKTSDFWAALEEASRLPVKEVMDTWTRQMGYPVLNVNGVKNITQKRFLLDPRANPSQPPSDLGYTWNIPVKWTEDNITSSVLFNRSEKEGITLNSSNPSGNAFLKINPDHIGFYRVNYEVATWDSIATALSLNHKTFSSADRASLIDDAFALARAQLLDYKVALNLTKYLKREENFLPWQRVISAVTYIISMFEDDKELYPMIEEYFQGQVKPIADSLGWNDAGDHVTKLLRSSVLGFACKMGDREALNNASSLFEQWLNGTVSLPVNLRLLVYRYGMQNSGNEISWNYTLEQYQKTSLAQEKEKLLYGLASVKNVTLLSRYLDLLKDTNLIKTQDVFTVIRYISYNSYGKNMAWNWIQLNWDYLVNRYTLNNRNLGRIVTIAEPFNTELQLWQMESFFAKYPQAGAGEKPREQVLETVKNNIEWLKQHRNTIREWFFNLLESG
T2 sequence (Q07075 whole entry): as above

Row | Compound | Phos/Unphos [1] | competition with CPKVCPRECESNC phage for binding to SK-RC-49/APA cells [2] | reduction of APA enzyme activity [3] [%] | inhibition of chemotaxis of HUVECs ([4]; 1 mM, VEGF-A 10 ng/ml, 5 h, FIG. 24) [%] | effect on cell migration [4, 8] | inhibition of HUVEC proliferation ([5]; 1 mM, VEGF-A 10 ng/ml, FIG. 25) [%] | effect on cell proliferation [5, 8] | HUVEC morphogenesis / capillary-like network ([6]; 1 mM, 24 h) | formation of capillary-like network ([6]; increasing concentrations) | inhibition of VEGF-A-induced neovascularization (number of capillaries emerging from the sponge) ([7]; 1 mM, VEGF-A 20 ng, day 12) [%] | effect on the number of growing vessels ([7]; lower peptide concentrations, not shown)
1 | MLLGYRFEK | 2.5 | – | – | – | – | – | – | – | – | – | –
2 | CC[C@H](C)[C@H](NC(=O)[C@H](CO)NC(=O)[C@H](CCC(=O)O)NC(=O)[C@H](CS)NC(=O)[C@H](CCC(=O)O)NC(=O)[C@H](CCCNC(=N)N)NC(=O)[C@@H]1CCCN1C(=O)[C@@H](N)CS)C(=O)N[C@@H](CS)C(=O)O (H-CPRECESIC-OH) | – | competed | 60 | 70 | no significant effect | 50 | no significant effect | vessel-like branching structures were significantly fewer and shorter | progressive impairment of the formation of this network | 40 | no effect
